# Molecular target: T1, human PAH with the R408W mutation (Homo sapiens, UniProt P00439, R408W)
# T1 construct: expressed in transfected cells
# T1 sequence (P00439 1-452 R408W): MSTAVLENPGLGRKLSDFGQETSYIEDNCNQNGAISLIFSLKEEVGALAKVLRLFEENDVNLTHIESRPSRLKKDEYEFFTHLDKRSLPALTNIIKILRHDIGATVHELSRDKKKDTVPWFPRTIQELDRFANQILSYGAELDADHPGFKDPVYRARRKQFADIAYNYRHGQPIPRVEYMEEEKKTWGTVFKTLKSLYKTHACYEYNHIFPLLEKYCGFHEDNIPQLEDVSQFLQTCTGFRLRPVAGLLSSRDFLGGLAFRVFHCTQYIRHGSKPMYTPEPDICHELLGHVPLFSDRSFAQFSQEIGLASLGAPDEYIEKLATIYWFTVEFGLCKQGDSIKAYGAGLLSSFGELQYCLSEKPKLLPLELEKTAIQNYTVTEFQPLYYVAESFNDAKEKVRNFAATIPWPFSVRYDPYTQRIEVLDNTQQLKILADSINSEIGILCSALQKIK
# Test: Cell Based Phenylalanine Flux Assay
# Details: A375 cells expressing human R408W PAH; 24 hrs with compound; 13C-Tyrosine by LC-MS; average where tested multiple times; read-out: AC50
# Protocol: Compounds were resuspended in DMSO, and 2-fold serial dilutions were performed to generate a 10-point dose curve. Compounds were added to plated cells in a total volume of 100 pal, and a final DMSO concentration of 0.5%. Each compound was tested in duplicate. Following compound addition, cells were placed in a 5% CO2, 37° C. tissue culture incubator for 24 hrs. After the incubation period, 20 μM sepiapterin and 800 μM 13C9,15N-Phenylalanine were added. After 4 hours, cell media was removed. An aliquot of 10 μl of cell media was combined with 200 μl of extraction buffer (80% acetonitrile/20% H2O) for each well. Determination of ^13C-Tyrosine concentration was assessed by liquid chromatography mass spectrometry.
# Where a compound was tested multiple times, the average value of the tests is reported.
row,SMILES,AC50 [µM]
1,Cn1nc(C(C)(C)O)cc1C(=O)N1CCc2[nH]cnc2C1c1nc2c(F)cccc2s1 (stereo not shown) [listing 1 of 2 here],> 5
2,Cn1ncc(C(=O)N2CCc3[nH]cnc3C2c2nc3c(F)cccc3s2)c1Cl (stereo not shown) [listing 1 of 2 here],> 5
3,Cn1ncc(C(=O)N2CCc3[nH]cnc3C2c2nc3c(F)cccc3s2)c1C#N (stereo not shown) [listing 1 of 2 here],> 5
4,Cc1cc(C(=O)N2CCc3[nH]cnc3C2c2nc3c(F)cccc3s2)n(-c2ccc(F)cc2)n1 (stereo not shown) [listing 1 of 2 here],> 5
5,Cn1nc(COC(F)(F)F)cc1C(=O)N1CCc2[nH]cnc2C1c1nc2c(F)cccc2s1 (stereo not shown) [listing 1 of 2 here],> 5
6,Cn1ncc(C(=O)N2CCc3[nH]cnc3C2c2nc3c(F)cccc3s2)n1 (stereo not shown) [listing 1 of 2 here],> 5
7,[2H]C([2H])([2H])OCc1cc(C(=O)N2CCc3[nH]cnc3C2c2nc3c(F)cccc3s2)n(C)n1 (stereo not shown) [listing 1 of 2 here],> 5
8,COCc1cc(C(=O)N2CCc3[nH]cnc3C2c2nc3c(F)cccc3s2)n(C)n1 (stereo not shown) [listing 1 of 2 here],> 5
9,COCc1cc(C(=O)N2CCc3[nH]cnc3C2c2nc3c(F)cccc3s2)[nH]n1 (stereo not shown) [listing 1 of 2 here],> 5
10,N#Cc1nc(NCC(F)(F)F)oc1C(=O)N1CCc2[nH]cnc2C1c1nc2ccccc2s1 (stereo not shown) [listing 1 of 2 here],> 5
11,Cn1nc(N)cc1C(=O)N1CCc2[nH]cnc2C1c1nc2c(F)cccc2s1 (stereo not shown) [listing 1 of 2 here],> 5
12,Cn1nc(C#N)cc1C(=O)N1CCc2[nH]cnc2C1c1nc2c(F)cccc2s1 (stereo not shown) [listing 1 of 2 here],> 5
13,Cn1nc(C(N)=O)cc1C(=O)N1CCc2[nH]cnc2C1c1nc2c(F)cccc2s1 (stereo not shown) [listing 1 of 2 here],> 5
14,Cn1nc(-c2ccc(Cl)cc2)cc1C(=O)N1CCc2[nH]cnc2C1c1nc2c(F)cccc2s1 (stereo not shown),1 to 5
15,O=C(c1cc(C(F)F)n[nH]1)N1CCc2[nH]cnc2C1c1nc2c(F)cccc2s1 (stereo not shown),1 to 5
16,O=C(c1cc(Cl)n[nH]1)N1CCc2[nH]cnc2C1c1nc2c(F)cccc2s1 (stereo not shown),1 to 5
17,Cn1nc(C(C)(C)O)cc1C(=O)N1CCc2[nH]cnc2C1c1nc2c(F)cccc2s1 (stereo not shown) [listing 2 of 2 here],1 to 5
18,CC(C)(O)c1cc(C(=O)N2CCc3[nH]cnc3C2c2nc3c(F)cccc3s2)[nH]n1 (stereo not shown),1 to 5
19,Cn1ncc(C(=O)N2CCc3[nH]cnc3C2c2nc3c(F)cccc3s2)c1Cl (stereo not shown) [listing 2 of 2 here],1 to 5
20,O=C(c1cnn(CCO)c1Cl)N1CCc2[nH]cnc2C1c1nc2c(F)cccc2s1 (stereo not shown),1 to 5
21,Cn1ncc(C(=O)N2CCc3[nH]cnc3C2c2nc3c(F)cccc3s2)c1C#N (stereo not shown) [listing 2 of 2 here],1 to 5
22,Cc1cc(C(=O)N2CCc3[nH]cnc3C2c2nc3c(F)cccc3s2)n(-c2ccc(F)cc2)n1 (stereo not shown) [listing 2 of 2 here],1 to 5

row,SMILES,AC50 [µM]
1,Cn1nc(COC(F)(F)F)cc1C(=O)N1CCc2[nH]cnc2C1c1nc2c(F)cccc2s1 (stereo not shown) [listing 2 of 2 here],1 to 5
2,Cn1ncc(C(=O)N2CCc3[nH]cnc3C2c2nc3c(F)cccc3s2)c1C(F)(F)F (stereo not shown),1 to 5
3,COCc1ncc(C(=O)N2CCc3[nH]cnc3C2c2nc3c(F)cccc3s2)o1 (stereo not shown),1 to 5
4,[2H]C([2H])([2H])OCc1cc(C(=O)N2CCc3[nH]cnc3C2c2nc3c(F)cccc3s2)n(C)n1 (stereo not shown) [listing 2 of 2 here],1 to 5
5,COCc1cc(C(=O)N2CCc3[nH]cnc3C2c2nc3c(F)cccc3s2)n(C)n1 (stereo not shown) [listing 2 of 2 here],1 to 5
6,COCc1cc(C(=O)N2CCc3[nH]cnc3C2c2nc3c(F)cccc3s2)[nH]n1 (stereo not shown) [listing 2 of 2 here],1 to 5
7,O=C(c1nnc(-c2ccc(C(F)(F)F)cc2)o1)N1CCc2[nH]cnc2C1c1nc2c(F)cccc2s1 (stereo not shown),1 to 5
8,N#Cc1nc(NCC(F)(F)F)oc1C(=O)N1CCc2[nH]cnc2C1c1nc2ccccc2s1 (stereo not shown) [listing 2 of 2 here],1 to 5
9,Cn1nc(N)cc1C(=O)N1CCc2[nH]cnc2C1c1nc2c(F)cccc2s1 (stereo not shown) [listing 2 of 2 here],1 to 5
10,Cn1nc(C#N)cc1C(=O)N1CCc2[nH]cnc2C1c1nc2c(F)cccc2s1 (stereo not shown) [listing 2 of 2 here],1 to 5
11,Cn1nc(C(N)=O)cc1C(=O)N1CCc2[nH]cnc2C1c1nc2c(F)cccc2s1 (stereo not shown) [listing 2 of 2 here],1 to 5
12,O=C(c1cc(CO)n[nH]1)N1CCc2[nH]cnc2C1c1nc2c(F)cccc2s1 (stereo not shown),> 5
13,Cn1nc(CO)cc1C(=O)N1CCc2[nH]cnc2C1c1nc2c(F)cccc2s1 (stereo not shown),1 to 5
14,CN(C)Cc1cc(C(=O)N2CCc3[nH]cnc3C2c2nc3c(F)cccc3s2)n(C)n1 (stereo not shown),> 5
15,Cc1nc(C(C)(C)O)oc1C(=O)N1CC2(CC2)c2[nH]cnc2C1c1nc2ccccc2s1 (stereo not shown) [listing 1 of 2 here],> 5
16,Cc1ncoc1C(=O)N1CC2(CC2)c2[nH]cnc2C1c1nc2c(F)cccc2s1 (stereo not shown) [listing 1 of 2 here],> 5
17,O=C(c1ocnc1CO)N1CC2(CC2)c2[nH]cnc2C1c1nc2ccccc2s1 (stereo not shown) [listing 1 of 2 here],> 5
18,CN(C)Cc1ccc2c(C(=O)N3CC4(CC4)c4[nH]cnc4C3c3nc4ccccc4s3)cnn2c1 (stereo not shown) [listing 1 of 2 here],> 5
19,Cc1nc(C(C)(C)O)oc1C(=O)N1CC2(CC2)c2[nH]cnc2C1c1nc2ccccc2s1 (stereo not shown) [listing 2 of 2 here],1 to 5
20,Cc1ncoc1C(=O)N1CC2(CC2)c2[nH]cnc2C1c1nc2c(F)cccc2s1 (stereo not shown) [listing 2 of 2 here],1 to 5
21,O=C(c1ocnc1CO)N1CC2(CC2)c2[nH]cnc2C1c1nc2ccccc2s1 (stereo not shown) [listing 2 of 2 here],1 to 5
22,CN(C)Cc1ccc2c(C(=O)N3CC4(CC4)c4[nH]cnc4C3c3nc4ccccc4s3)cnn2c1 (stereo not shown) [listing 2 of 2 here],1 to 5

# The next lines start with the values.
row,AC50 [µM],SMILES
1,> 5,O=C(C1CN(c2ccccn2)C1)N1CCc2[nH]cnc2C1c1nc2ccccc2s1 (stereo not shown) [listing 1 of 2 here]
2,> 5,COCCc1ncc(C(=O)N2CCc3[nH]cnc3C2c2nc3ccccc3s2)o1 (stereo not shown) [listing 1 of 2 here]
3,> 5,COCc1ncc(C(=O)N2CCc3[nH]cnc3C2c2nc3ccccc3s2)o1 (stereo not shown) [listing 1 of 2 here]
4,> 5,Cn1ncc(C(=O)N2CCc3[nH]cnc3C2c2nc3ccccc3s2)n1 (stereo not shown) [listing 1 of 2 here]
5,> 5,CS(=O)(=O)c1ncoc1C(=O)N1CCc2[nH]cnc2C1c1nc2ccccc2s1 (stereo not shown) [listing 1 of 2 here]
6,> 5,O=C(c1nnc(CCN2CCOCC2)o1)N1CCc2[nH]cnc2C1c1nc2ccccc2s1 (stereo not shown) [listing 1 of 2 here]
7,> 5,O=C(c1nnc(CCCN2CC(F)C2)o1)N1CCc2[nH]cnc2C1c1nc2ccccc2s1 (stereo not shown) [listing 1 of 2 here]
8,> 5,O=C(c1nnc(CCCN2CCOCC2)o1)N1CCc2[nH]cnc2C1c1nc2ccccc2s1 (stereo not shown) [listing 1 of 2 here]
9,> 5,O=C(c1nnc(CCC(F)(F)F)o1)N1CCc2[nH]cnc2C1c1nc2ccccc2s1 (stereo not shown) [listing 1 of 2 here]
10,> 5,O=C(c1ccn(-c2ccccn2)n1)N1CCc2[nH]cnc2C1c1nc2c(F)cccc2s1 (stereo not shown) [listing 1 of 2 here]
11,> 5,Cn1nc(-c2ccccn2)cc1C(=O)N1CCc2[nH]cnc2C1c1nc2c(F)cccc2s1 (stereo not shown) [listing 1 of 2 here]
12,> 5,NC(=O)c1ncoc1C(=O)N1CCc2[nH]cnc2C1c1nc2ccccc2s1 (stereo not shown) [listing 1 of 2 here]
13,> 5,O=C(c1nnc(CCNC2CC2)o1)N1CCc2[nH]cnc2C1c1nc2ccccc2s1 (stereo not shown) [listing 1 of 2 here]
14,> 5,CN(C)CCc1nnc(C(=O)N2CCc3[nH]cnc3C2c2nc3ccccc3s2)o1 (stereo not shown) [listing 1 of 2 here]
15,> 5,CN(C)Cc1nc(C(=O)N2CCc3[nH]cnc3C2c2nc3ccccc3s2)no1 (stereo not shown) [listing 1 of 2 here]
16,1 to 5,O=C(C1CN(c2ccccn2)C1)N1CCc2[nH]cnc2C1c1nc2ccccc2s1 (stereo not shown) [listing 2 of 2 here]
17,1 to 5,COCCc1ncc(C(=O)N2CCc3[nH]cnc3C2c2nc3ccccc3s2)o1 (stereo not shown) [listing 2 of 2 here]
18,1 to 5,COCc1ncc(C(=O)N2CCc3[nH]cnc3C2c2nc3ccccc3s2)o1 (stereo not shown) [listing 2 of 2 here]
19,1 to 5,Cn1ncc(C(=O)N2CCc3[nH]cnc3C2c2nc3ccccc3s2)n1 (stereo not shown) [listing 2 of 2 here]
20,1 to 5,Cc1noc(C(=O)N2CCc3[nH]cnc3C2c2nc3ccccc3s2)n1 (stereo not shown)
21,1 to 5,CS(=O)(=O)c1ncoc1C(=O)N1CCc2[nH]cnc2C1c1nc2ccccc2s1 (stereo not shown) [listing 2 of 2 here]
22,1 to 5,O=C(c1nnc(CCN2CCOCC2)o1)N1CCc2[nH]cnc2C1c1nc2ccccc2s1 (stereo not shown) [listing 2 of 2 here]
23,1 to 5,O=C(c1nnc(CCCN2CC(F)C2)o1)N1CCc2[nH]cnc2C1c1nc2ccccc2s1 (stereo not shown) [listing 2 of 2 here]
24,1 to 5,O=C(c1nnc(CCCN2CCOCC2)o1)N1CCc2[nH]cnc2C1c1nc2ccccc2s1 (stereo not shown) [listing 2 of 2 here]

row,AC50 [µM],SMILES
1,1 to 5,O=C(c1nnc(C2CC(F)(F)C2)o1)N1CCc2[nH]cnc2C1c1nc2ccccc2s1 (stereo not shown)
2,1 to 5,O=C(c1nnc(CCC(F)(F)F)o1)N1CCc2[nH]cnc2C1c1nc2ccccc2s1 (stereo not shown) [listing 2 of 2 here]
3,> 5,O=C(c1nnc(C2CNC2)o1)N1CCc2[nH]cnc2C1c1nc2ccccc2s1 (stereo not shown)
4,1 to 5,COCc1nnc(C(=O)N2CCc3[nH]cnc3C2c2nc3ccccc3s2)o1 (stereo not shown)
5,> 5,Cc1nc(C(=O)N2CCc3[nH]cnc3C2c2nc3ccccc3s2)no1 (stereo not shown)
6,1 to 5,N#Cc1n[nH]cc1C(=O)N1CCc2[nH]cnc2C1c1nc2ccccc2s1 (stereo not shown)
7,1 to 5,CN(C)CCn1cc(C(=O)N2CCc3[nH]cnc3C2c2nc3ccccc3s2)c(C#N)n1 (stereo not shown)
8,> 5,CN(C)CCn1ncc(C(=O)N2CCc3[nH]cnc3C2c2nc3ccccc3s2)c1C#N (stereo not shown)
9,1 to 5,O=C(C1CN(CC(F)(F)F)C1)N1CCc2[nH]cnc2C1c1nc2c(F)cccc2s1 (stereo not shown)
10,1 to 5,O=C(c1ccn(-c2ccccn2)n1)N1CCc2[nH]cnc2C1c1nc2c(F)cccc2s1 (stereo not shown) [listing 2 of 2 here]
11,1 to 5,O=C(C1CN(c2ccccn2)C1)N1CCc2[nH]cnc2C1c1nc2c(F)cccc2s1 (stereo not shown)
12,1 to 5,Cn1nc(-c2ccccn2)cc1C(=O)N1CCc2[nH]cnc2C1c1nc2c(F)cccc2s1 (stereo not shown) [listing 2 of 2 here]
13,1 to 5,Cn1ncc(C(=O)N2CCc3[nH]cnc3C2c2nc3c(F)cccc3s2)n1 (stereo not shown) [listing 2 of 2 here]
14,1 to 5,CN(C)Cc1nc(C#N)c(C(=O)N2CCc3[nH]cnc3C2c2nc3ccccc3s2)o1 (stereo not shown)
15,1 to 5,NC(=O)c1ncoc1C(=O)N1CCc2[nH]cnc2C1c1nc2ccccc2s1 (stereo not shown) [listing 2 of 2 here]
16,1 to 5,O=C(c1nnc(CCNC2CC2)o1)N1CCc2[nH]cnc2C1c1nc2ccccc2s1 (stereo not shown) [listing 2 of 2 here]
17,1 to 5,CN(C)CCc1nnc(C(=O)N2CCc3[nH]cnc3C2c2nc3ccccc3s2)o1 (stereo not shown) [listing 2 of 2 here]
18,1 to 5,CN(C)Cc1nc(C(=O)N2CCc3[nH]cnc3C2c2nc3ccccc3s2)no1 (stereo not shown) [listing 2 of 2 here]
19,1 to 5,CN(C)Cc1ncc(C(=O)N2CCc3[nH]cnc3C2c2nc3ccccc3s2)o1 (stereo not shown)
20,1 to 5,COC(=O)N1CC(C(=O)N2CCc3[nH]cnc3C2c2nc3ccccc3s2)C1 (stereo not shown)
21,1 to 5,COC(=O)N1CC(C(=O)N2CCc3[nH]cnc3C2c2nc3c(F)cccc3s2)C1 (stereo not shown)
22,> 5,O=C(c1cnco1)N1CC2(CC2)c2[nH]cnc2C1c1nc2ccccc2s1 (stereo not shown)
23,> 5,Cc1nc(-c2ccccn2)oc1C(=O)N1CC2(CC2)c2[nH]cnc2C1c1nc2ccccc2s1 (stereo not shown)

# — patent US20250171438A1 (Agios Pharmaceuticals, Inc., priority 2022, published 2025)
